The values below come from ChEMBL document CHEMBL4393698, “Exploring the effect of chirality on the therapeutic potential of N-alkyl-deoxyiminosugars: anti-inflammatory response to Pseudomonas aeruginosa infections for application in CF lung disease” (Eur J Med Chem, 2019).

By IC50 is commonly meant the midpoint of a concentration-inhibition curve.

Molecules are shown by their SMILES. The source made the active and inactive calls. The rule behind the calls is not given here.

Series [1] addresses T1, Lysosomal acid glucosylceramidase (Homo sapiens) (UniProt P04062).
T1 sequence (whole entry): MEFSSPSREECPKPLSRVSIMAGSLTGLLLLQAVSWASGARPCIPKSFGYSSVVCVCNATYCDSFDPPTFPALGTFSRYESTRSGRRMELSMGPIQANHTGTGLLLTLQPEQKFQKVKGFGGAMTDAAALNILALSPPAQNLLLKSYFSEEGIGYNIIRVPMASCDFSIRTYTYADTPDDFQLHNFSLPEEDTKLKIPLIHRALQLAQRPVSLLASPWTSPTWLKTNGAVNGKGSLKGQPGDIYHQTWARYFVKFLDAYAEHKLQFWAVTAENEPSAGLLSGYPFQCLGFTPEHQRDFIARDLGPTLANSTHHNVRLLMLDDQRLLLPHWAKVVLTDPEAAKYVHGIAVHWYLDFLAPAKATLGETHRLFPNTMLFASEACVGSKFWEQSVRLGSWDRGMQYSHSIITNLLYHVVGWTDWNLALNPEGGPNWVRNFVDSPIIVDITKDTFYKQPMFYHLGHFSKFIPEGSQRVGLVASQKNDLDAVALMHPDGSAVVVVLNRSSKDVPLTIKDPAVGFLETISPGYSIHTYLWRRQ
To be noted: SH-SY5Y, 1 nM.

Series [2] addresses T2, Beta-glucosidase (Homo sapiens, UniProt Q9HCG7).
T2 sequence (Q9HCG7 whole entry): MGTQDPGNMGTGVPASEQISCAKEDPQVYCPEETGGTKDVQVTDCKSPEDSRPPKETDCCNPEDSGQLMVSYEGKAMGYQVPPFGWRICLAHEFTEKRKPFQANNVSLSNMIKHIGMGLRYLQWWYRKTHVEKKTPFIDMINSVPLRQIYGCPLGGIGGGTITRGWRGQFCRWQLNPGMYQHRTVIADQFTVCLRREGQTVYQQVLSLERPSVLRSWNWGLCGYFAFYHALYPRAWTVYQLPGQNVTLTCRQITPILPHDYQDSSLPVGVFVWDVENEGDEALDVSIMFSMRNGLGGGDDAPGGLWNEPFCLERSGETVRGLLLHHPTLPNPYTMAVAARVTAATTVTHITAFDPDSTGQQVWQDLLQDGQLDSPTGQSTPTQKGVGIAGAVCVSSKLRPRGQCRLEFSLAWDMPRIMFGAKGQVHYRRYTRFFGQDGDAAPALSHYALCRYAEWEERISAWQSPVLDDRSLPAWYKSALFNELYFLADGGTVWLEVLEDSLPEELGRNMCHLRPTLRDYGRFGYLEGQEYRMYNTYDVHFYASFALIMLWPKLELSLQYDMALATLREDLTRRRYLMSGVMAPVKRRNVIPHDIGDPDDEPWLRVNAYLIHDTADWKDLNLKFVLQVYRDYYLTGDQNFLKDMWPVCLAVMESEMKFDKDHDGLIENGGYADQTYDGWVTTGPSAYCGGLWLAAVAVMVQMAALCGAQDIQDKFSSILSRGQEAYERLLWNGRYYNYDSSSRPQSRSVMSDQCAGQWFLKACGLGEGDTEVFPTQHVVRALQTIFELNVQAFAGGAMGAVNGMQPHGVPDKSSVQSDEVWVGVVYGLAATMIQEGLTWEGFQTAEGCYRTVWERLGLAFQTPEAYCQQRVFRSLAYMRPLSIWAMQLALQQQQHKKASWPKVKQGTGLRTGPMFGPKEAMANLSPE

For series [3], the target named is T3, Beta-glucosidase (Homo sapiens) (UniProt Q9HCG7).
T3 sequence (whole entry): T2 sequence (Q9HCG7 whole entry)
Particulars: SH-SY5Y, 1 nM.

Series [4] concerns CuFi-1. As to the kind of experiment: Induction of apoptosis in human CuFi1 cells incubated for 48 hrs by Muse Annexin V based cell counter assay. Particulars: cufi-1, 48 h.
The test system of series [5] is CuFi-1. As to the kind of experiment: Cytotoxicity against human CuFi1 cells assessed as reduction in cell viability incubated for 48 hrs by Muse cell analyser method. To be noted: cufi-1, 48 h. The series is classed as cell-based.
The test system of series [6] is CuFi-1. Nature of the series: Anti-inflammatory activity in human CuFi1 cells assessed as reduction in Pseudomonas aeruginosa PAO1-induced IL-8 mRNA expression level pretreated for 1 hr followed by Pseudomonas aeruginosa PAO1 challenge and measured after 4 hrs by RT-PCR analysis. Type of series: functional, cell-based.
The test system of series [7] is CuFi-1. Nature of the series: Anti-inflammatory activity in human CuFi1 cells assessed as reduction in Pseudomonas aeruginosa PAO1-induced IL-8 mRNA expression level pretreated for 1 hr followed by Pseudomonas aeruginosa PAO1 challenge and measured after 4 hrs by RT-PCR analysis relative to control. The series is classed as functional.
For series [8], the system named is CuFi-1. As to the kind of experiment: Anti-inflammatory activity in human CuFi1 cells assessed as reduction in Pseudomonas aeruginosa PAO1-induced IL-8 mRNA expression level at 0.1 uM pretreated for 1 hr followed by Pseudomonas aeruginosa PAO1 challenge and measured after 4 hrs by RT-PCR analysis relative to control. The series is classed as functional. Details: scale not given: the % may be the effect or the level left.

A short description of series [9]: Toxicity in Pseudomonas aeruginosa PAO1 infected C57Bl/6NCr mouse assessed as change in body weight at 10 to 100 mg/kg, po administered via gavage pretreated for 1 to 24 hrs followed by Pseudomonas aeruginosa PAO1 challenge and measured after 6 hrs. The series is classed as organism-based. To be noted: in vivo.
The species entered for series [10] is Homo sapiens. As to the kind of experiment: Anti-inflammatory activity in human Bronchial epithelial cells assessed as reduction in Pseudomonas aeruginosa PAO1-induced IL-8 mRNA expression level at 10 nM pretreated for 1 hr followed by Pseudomonas aeruginosa PAO1 challenge and measured after 4 hrs by RT-PCR analysis relative to control. Type of series: functional.

Series [11] has as its system Pseudomonas aeruginosa. As to the kind of experiment: Anti-inflammatory activity in Pseudomonas aeruginosa PAO1 infected C57Bl/6NCr mouse assessed as reduction in bacteria detected in lungs dosed orally via gavage pretreated for 1 to 24 hrs followed by Pseudomonas aeruginosa PAO1 challenge and measured after 6 hrs. The series is classed as functional, organism-based.

The test system of series [12] is Pseudomonas aeruginosa. As to the kind of experiment: Anti-inflammatory activity in Pseudomonas aeruginosa PAO1 infected C57Bl/6NCr mouse assessed as reduction in amount of neutrophils recruited in BAL at 10 mg/kg, po administered via gavage pretreated for 1 to 24 hrs followed by Pseudomonas aeruginosa PAO1 challenge and measured after 6 hrs. Type of series: functional, organism-based.

Series [13] concerns Pseudomonas aeruginosa. As to the kind of experiment: Anti-inflammatory activity in Pseudomonas aeruginosa PAO1 infected C57Bl/6NCr mouse assessed as reduction in amount of bacteria recovered in airway at 10 mg/kg, po administered via gavage pretreated for 1 to 24 hrs followed by Pseudomonas aeruginosa PAO1 challenge and measured after 6 hrs. Type of series: functional, organism-based.

Series [14] concerns Pseudomonas aeruginosa. As to the kind of experiment: Anti-inflammatory activity in Pseudomonas aeruginosa PAO1 infected C57Bl/6NCr mouse assessed as reduction in bacterial CFU in lungs at 10 mg/kg, po administered via gavage pretreated for 1 to 24 hrs followed by Pseudomonas aeruginosa PAO1 challenge and measured after 6 hrs. Type of series: functional, organism-based.
In series [15] the test system is Pseudomonas aeruginosa. Nature of the series: Anti-inflammatory activity in Pseudomonas aeruginosa PAO1 infected C57Bl/6NCr mouse assessed as reduction in bacterial CFU in BAL at 10 mg/kg, po administered via gavage pretreated for 1 to 24 hrs followed by Pseudomonas aeruginosa PAO1 challenge and measured after 6 hrs. The series is classed as functional, organism-based.

Series [16] deals with Pseudomonas aeruginosa. Nature of the series: Anti-inflammatory activity in Pseudomonas aeruginosa PAO1 infected C57Bl/6NCr mouse assessed as reduction in amount of neutrophils in lungs at 100 mg/kg, po administered via gavage pretreated for 1 to 24 hrs followed by Pseudomonas aeruginosa PAO1 challenge and measured after 6 hrs. Type of series: functional, organism-based.
For series [17], the system named is Pseudomonas aeruginosa. As to the kind of experiment: Anti-inflammatory activity in Pseudomonas aeruginosa PAO1 infected C57Bl/6NCr mouse assessed as increase in alveolar macrophages in lungs at 10 mg/kg, po administered via gavage pretreated for 1 to 24 hrs followed by Pseudomonas aeruginosa PAO1 challenge and measured after 6 hrs. The series is classed as functional, organism-based.

The nature of series [18]: Toxicity in Pseudomonas aeruginosa PAO1 infected C57Bl/6NCr mouse assessed as change in body weight at 100 mg/kg, po administered via gavage pretreated for 1 to 24 hrs followed by Pseudomonas aeruginosa PAO1 challenge and measured after 6 hrs. Type of series: organism-based. Particulars: in vivo.

Turning to `CCCCCCOCCCCCN1C[C@H](O)[C@@H](O)[C@H](O)[C@H]1CO`, the Imax in series [1] and in series [3] was 100% in each case. In series [2], this compound gave an IC50 of 0.4 nM.

With `OC[C@@H]1[C@@H](O)[C@H](O)[C@@H](O)CN1CCCCCOCC12CC3CC(CC(C3)C1)C2`, the Activity result in [4] and in series [5] was “Non-Toxic” each time. Also, the IC50 in series [6] turned out to be 1.84 nM.

`CCCCCCCCCN1CC(O)C(O)C(O)C1CO` (racemic): the Activity entry in [4] is reported as “Non-Toxic”; in [8], 22%; in series [5], “Non-Toxic”. In series [7], the Imax is given as 12%. Besides, the IC50 in series [6] was determined as 0.6 nM.

For `CCCCN1C[C@H](O)[C@@H](O)[C@H](O)[C@H]1CO`, the Activity result in series [4], in series [5] and in [9] was “Non-Toxic” throughout. Besides, in [7], the Imax came out at 50%. Moreover, the IC50 in series [6] is 2000 nM.

For the compound `CCCCCCOCCCCCN1C[C@@H](O)[C@H](O)[C@@H](O)[C@@H]1CO`, the Imax was 65% in series [1] and 100% in [3]. The IC50 in series [2] came to 36700 nM.

As for `OCC1C(O)C(O)C(O)CN1CCCCCOCC12CC3CC(CC(C3)C1)C2` (racemic), the result in [10] was Active. The Activity entry in series [4] was “Non-Toxic”; in series [8], 42%; in series [5] it was “Non-Toxic”. In series [7], the Imax came to 29%. Also, the 50% inhibitory concentration (IC50) in [6] stood at 1.84 nM.

On to `CCCCCCCCCN1C[C@@H](O)[C@H](O)[C@@H](O)[C@@H]1CO`, for which the Activity result in [4] is “Non-Toxic”; in series [8], 16%; in series [5] it was “Non-Toxic”.

`OC[C@H]1[C@H](O)[C@@H](O)[C@H](O)CN1CCCCCOCC12CC3CC(CC(C3)C1)C2`: the Activity entry in series [4] is recorded as “Non-Toxic”; in series [8] it was 29%; in series [5], “Non-Toxic”.

In series [2], `CCCCCCOCCCCCN1CC(O)C(O)C(O)C1CO` (racemic) came in with an IC50 of 1 nM. The Imax in [3] stood at 100%.

As for `CCCCCCCCCN1C[C@H](O)[C@@H](O)[C@H](O)[C@H]1CO`, the Activity entry is reported as “Non-Toxic” in series [4], 8% in series [8] and “Non-Toxic” in series [5].

Turning to `CCCCN1C[C@@H](O)[C@H](O)[C@@H](O)[C@@H]1CO`, in series [11], the outcome was inactive. The result in [12] and in [13] was Active. Also, the Activity entry was “Non-Toxic” in series [4], “<=20%” in series [8], “Non-Toxic” in [5] and “Non-Toxic” in series [9].

Turning to `CCCCN1CC(O)C(O)C(O)C1CO` (racemic), the result in [10], in [14], in series [15] and in series [17] was Active. Moreover, the Activity entry in [4] is “Non-Toxic”; in [8], 30%; in series [5] it was “Non-Toxic”; in [18] it was “Non-Toxic”. Further, the Imax in [7] worked out at 36%. Moreover, the result in series [16] was inactive. Also, the IC50 in [6] is 0.95 nM.
